Test results taken from US20250129130A1, “USE OF VARIOVORAX MICROBES AS AN ALTERNATIVE TREATMENT FOR COCCIDIOSIS” (ZIVO BIOSCIENCE, INC., priority 2020, published 2025).

Experiments:
TLR4 [1] = biological target: T1, TLR4 (Homo sapiens, UniProt O00206+Q9Y6Y9); details: Phase 2 multiple sclerosis trial, versus placebo; cited from earlier work
[2] = tested on: E. acervuline, E. maxima, E. tenella oocysts; experiment: Study No. 3: floor-pen broiler performance and digestive health under cocci-challenge + built-up litter; details: Coban 90 g/ton, Inventive Compound 125 g/ton
TLR4 [3] = biological target: T1, TLR4; details: severe sepsis; cited from earlier work
[4] = tested on: mixed E. acervulina, E. maxima, and E. tenella coccidial inoculum; experiment: Study No. 1: anticoccidial efficacy in feed, battery-cage broilers, mixed Eimeria challenge; type: in vivo, male broiler chickens; details: Salinomycin 60 g/t
Description: A non-limiting example of a method for the improvement of growth efficiency in broiler chickens exposed to a coccidiosis disease challenge is set forth.
The study animals were chickens, specifically male broiler chickens. Day of hatch male broiler chicks were obtained. At the hatchery, the birds were sexed. Sets of ten chicks were randomly selected, group weighed and placed into cages. The number and disposition of all birds not used for allocation were documented. No birds were replaced during the course of the study. There were 80 birds per treatment group.
The poultry cages were blocked by location in the battery with block size equal to treatments. The study began when the birds, specifically broiler chickens, were placed on the day of hatch (DOT 0) at which time they were allocated to the experimental cages. Only healthy birds were selected. At placement the birds were fed the treatment feeds. Thermostatically controlled gas furnace/air conditioner maintained uniform temperature in the cages.
An un-medicated commercial type chicken starter compounded with feedstuffs commonly used in the United States was formulated. The diet was an all-vegetable feed having no antibiotics, organic acid, NSP enzyme, or direct fed microbial. This ration was fed ad libitum from the date of chick arrival until Day 28 of the study. The diet formulation was included in the source data. Experimental treatment feeds were prepared from this basal starter feed. Quantities of all basal feed and test articles used to prepare treatment batches were documented.
All birds were weighed by cage on DOT 0, 14, 20 and 28. Feed was weighed in on DOT 0. The remaining feed was weighed on DOT 14, 20, and 28.
Coccidial oocysts inoculation procedures were carried out. On Day 14 of the study, all birds except T1 orally received a mixed E. acervulina, E. maxima, and E. tenella coccidial inoculum diluted to a 1.0 ml volume (p.o.). Inoculum level attempted to produce a moderate challenge.
On DOT 20, a select number of birds from each cage were selected, sacrificed, weighed, and examined for the degree of presence of coccidia lesions. The Johnson and Reid (1970) method of coccidiosis lesion scoring was used to score the infected region(s) of the intestine. The scoring was based on a 0 to 4 score, with 0 being normal and 4 being the most severe. Also on Day 20 mixed feces were collected from each cage. Each sample was examined for the number of oocysts per gram fecal material by fecal floatation.
STUDY NO. 1—ANALYSIS METHODOLOGY Means for cage weight gain, feed consumption, feed conversion, lesion scores, oocyst counts (OPGs), and mortality were calculated.

[5] = DAY 0-20, infected Day 14, Inventive Compound 0.551%
[6] = DAY 0-28, infected Day 14, Inventive Compound 0.551%
[7] = DAY 14 (before challenge), Inventive Compound 0.551% in feed
[8] = DAY 14-20, infected Day 14, Inventive Compound 0.551%
[9] = DAY 14-28, infected Day 14, Inventive Compound 0.551%
[10] = DOT 20, Johnson and Reid 0 to 4 score, Inventive Compound 0.551%
[11] = Day 20 mixed feces, fecal floatation, Inventive Compound 0.551%

T1 sequence (O00206 24-839): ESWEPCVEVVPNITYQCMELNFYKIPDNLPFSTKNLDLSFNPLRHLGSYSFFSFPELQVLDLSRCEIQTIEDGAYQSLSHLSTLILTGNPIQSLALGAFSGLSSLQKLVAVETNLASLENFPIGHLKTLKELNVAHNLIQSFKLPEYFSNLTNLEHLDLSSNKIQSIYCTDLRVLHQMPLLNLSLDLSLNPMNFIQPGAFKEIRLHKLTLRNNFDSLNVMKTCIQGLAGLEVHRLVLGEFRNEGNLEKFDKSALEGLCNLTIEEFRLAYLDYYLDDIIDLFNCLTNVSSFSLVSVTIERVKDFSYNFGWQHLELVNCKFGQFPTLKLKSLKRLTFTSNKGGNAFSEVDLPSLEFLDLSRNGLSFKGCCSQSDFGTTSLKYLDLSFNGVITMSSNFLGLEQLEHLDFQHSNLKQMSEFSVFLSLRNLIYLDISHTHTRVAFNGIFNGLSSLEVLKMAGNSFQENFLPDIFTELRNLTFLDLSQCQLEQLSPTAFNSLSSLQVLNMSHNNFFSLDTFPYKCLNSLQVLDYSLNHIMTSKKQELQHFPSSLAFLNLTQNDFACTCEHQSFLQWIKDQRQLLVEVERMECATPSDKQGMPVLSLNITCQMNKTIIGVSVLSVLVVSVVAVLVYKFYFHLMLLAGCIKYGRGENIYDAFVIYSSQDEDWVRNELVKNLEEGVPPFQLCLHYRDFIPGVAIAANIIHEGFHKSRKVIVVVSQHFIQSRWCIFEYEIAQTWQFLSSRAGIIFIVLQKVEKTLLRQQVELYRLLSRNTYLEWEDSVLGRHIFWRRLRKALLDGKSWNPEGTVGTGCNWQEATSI
T1 sequence (Q9Y6Y9 17-160 limits assumed): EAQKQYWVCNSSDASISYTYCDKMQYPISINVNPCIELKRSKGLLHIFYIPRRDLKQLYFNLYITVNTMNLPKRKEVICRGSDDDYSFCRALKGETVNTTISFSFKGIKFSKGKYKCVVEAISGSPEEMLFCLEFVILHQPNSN

CC(C)C(=O)c1c(C(C)C)nn2ccccc12 [Ibudilast]
rates of gastrointestinal side effects, headache, and depression (TLR4 [1]): higher rates

CC[C@@]1([C@@H]2O[C@@H]([C@H]3O[C@@](O)(CO)[C@H](C)C[C@@H]3C)C[C@@H]2C)CC[C@H]([C@]2(C)CC[C@]3(C[C@H](O)[C@@H](C)[C@@H]([C@@H](C)[C@@H](OC)[C@H](C)C(=O)O)O3)O2)O1 [Coban, Monensin, USP]
% Mortality ([2]; DAY 0-14, challenge Day 7): 0.833a % | Avg Body Weight (g) ([2]; DAY 0-14, challenge Day 7): 496.13a g | FCR ([2]; DAY 0-14, challenge Day 7): 1.112ab | Feed Intake (g/bird/day) ([2]; DAY 0-14, challenge Day 7): 34.680b g/bird/day | % Mortality ([2]; DAY 0-21): 1.563a % | Avg Body Weight (g) ([2]; DAY 0-21): 951.80a g | FCR ([2]; DAY 0-21): 1.151a | Feed Intake (g/bird/day) ([2]; DAY 0-21): 54.811a g/bird/day | % Mortality ([2]; DAY 0-28): 1.563a % | Avg Body Weight (g) ([2]; DAY 0-28): 1535.00a g | FCR ([2]; DAY 0-28): 1.387a | Feed Intake (g/bird/day) ([2]; DAY 0-28): 78.960c g/bird/day | % Mortality ([2]; DAY 15-21): 0.729a % | Avg Body Weight (g) ([2]; DAY 15-21): 445.167a g | FCR ([2]; DAY 15-21): 1.244ab | Feed Intake (g/bird/day) ([2]; DAY 15-21): 77.988a g/bird/day | % Mortality ([2]; DAY 22-28): 0.000a % | Avg Body Weight (g) ([2]; DAY 22-28): 583.217a g | FCR ([2]; DAY 22-28): 1.825a | Feed Intake (g/bird/day) ([2]; DAY 22-28): 151.410c g/bird/day | DAY 14 Avg Lesion Score Ceca ([2]; Day 14): 0.292a | DAY 14 Avg Lesion Score Duodenum ([2]; Day 14): 0.375b | DAY 28 Avg Lesion Score Ceca ([2]; Day 28): 0.229a | DAY 28 Avg Lesion Score Duodenum ([2]; Day 28): 0.208a

CCOC(=O)C1=CCCC[C@H]1S(=O)(=O)Nc1ccc(F)cc1Cl [Resatorvid]
mortality in Phase 3 clinical trials (TLR4 [3]): failed to reduce mortality

CC[C@@H](C(=O)[C@@H](C)[C@@H](O)[C@H](C)[C@@H]1O[C@@H]([C@@H](CC)C(=O)O)CC[C@@H]1C)[C@H]1O[C@]2(C=C[C@@H](O)[C@]3(CC[C@@](C)([C@H]4CC[C@](O)(CC)[C@H](C)O4)O3)O2)[C@H](C)C[C@@H]1C [Salinomycin]
FCR [4, 5]: 1.597bc | Feed Intake [4, 5]: 5.433a | Wt. Gain [4, 5]: 0.360b | FCR [4, 6]: 1.625bc | Feed Intake [4, 6]: 5.918a | Wt. Gain [4, 6]: 0.376b | FCR [4, 7]: 1.156a | Feed Intake [4, 7]: 2.384a | Wt. Gain [4, 7]: 0.218a | FCR [4, 8]: 1.744b | Feed Intake [4, 8]: 3.049a | Wt. Gain [4, 8]: 0.185b | FCR [4, 9]: 1.766c | Feed Intake [4, 9]: 3.534a | Wt. Gain [4, 9]: 0.202b | Lesion Scores Avg. [4, 10]: 1.3c | Lesion Scores Eimeria acervulina [4, 10]: 2.1c | Lesion Scores Eimeria maxima [4, 10]: 0.9c | Lesion Scores Eimeria tenella [4, 10]: 0.7c | Oocysts per Gram Fecal Material Avg. [4, 11]: 9722b | Oocysts per Gram Fecal Material Eimeria acervulina [4, 11]: 4511a | Oocysts per Gram Fecal Material Eimeria maxima [4, 11]: 484b | Oocysts per Gram Fecal Material Eimeria tenella [4, 11]: 4727c
